Measurements as given in PubChem BioAssay (NCI).
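Dose response: 5 concentrations. Exposure: 48 h. Format: 96-well plates. Endpoint: linear interpolation; highest concentration if not reached. GI50 = concentration required for 50% inhibition of growth. Definition used: TGI = concentration required for complete inhibition of growth.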

How the values were obtained:
Assay in all cases: inhibition of tumour cell growth, NCI panel, 48 h
[1] = system: 786-0 renal
[2] = system: A549 NSCLC
[3] = system: K-562 leukemia
[4] = system: NCI-H522 lung
[5] = system: SK-MEL-2 melanoma
[6] = system: SK-MEL-5 melanoma
[7] = system: SNB-19 CNS
[8] = system: SNB-75 CNS
[9] = system: TK-10 renal
[10] = system: MALME-3M melanoma

S=c1ssc(Sc2ccccn2)c1Cl
GI50 [1]: 4.09 µM | TGI [1]: 14.4 µM | GI50 [2]: 21 µM | TGI [2]: 42.7 µM | GI50 [3]: 3.63 µM | TGI [3]: 14.5 µM | GI50 [4]: 6.99 µM | TGI [4]: 21.9 µM | GI50 [5]: 34.6 µM | TGI [5]: > 100 µM | GI50 [6]: 3.74 µM | TGI [6]: 15.3 µM | GI50 [7]: 17 µM | TGI [7]: 41 µM | GI50 [8]: 23.3 µM | TGI [8]: 56.8 µM | GI50 [9]: 2.11 µM | TGI [9]: 8.57 µM

CC(C)=CC(=O)CC(=O)C(=O)Nc1ccc(Cl)c(Cl)c1
TGI [1]: > 100 µM | TGI [2]: > 100 µM | TGI [3]: > 100 µM | TGI [10]: > 100 µM | TGI [4]: > 100 µM | TGI [5]: > 100 µM | TGI [7]: > 100 µM | TGI [8]: > 100 µM | TGI [9]: > 100 µM

CC(=O)C1=C([O-])C(C)OC1=O.CC(=O)C1=C([O-])C(C)OC1=O.[NH-]C1CCCC[C@H]1[NH-].[Pt+4] (stereo not drawn)
GI50 [1]: 9.67 µM | TGI [1]: > 100 µM | GI50 [2]: 88.1 µM | TGI [2]: > 100 µM | GI50 [3]: 61.2 µM | TGI [3]: > 100 µM | GI50 [10]: 48 µM | TGI [10]: > 100 µM | GI50 [4]: 27.5 µM | TGI [4]: > 100 µM | GI50 [5]: > 100 µM | TGI [5]: > 100 µM | GI50 [6]: 57.5 µM | TGI [6]: > 100 µM | GI50 [7]: > 100 µM | TGI [7]: > 100 µM | GI50 [9]: > 100 µM | TGI [9]: > 100 µM

CCOC(=O)/C(C#N)=C1\N[C@H](C(=O)OCC)CO1
TGI [1]: > 100 µM | TGI [2]: > 100 µM | TGI [3]: > 100 µM | TGI [10]: > 100 µM | TGI [4]: > 100 µM | TGI [5]: 62.6 µM | TGI [6]: > 100 µM | TGI [7]: > 100 µM

O=C1CC2C(=O)N(Cc3ccccc3)C1C(S(=O)(=O)c1ccccc1)C2S(=O)(=O)c1ccccc1 (stereo not drawn)
TGI [1]: 9.68 µM | TGI [2]: 33.2 µM | TGI [3]: 6.66 µM | TGI [10]: 3.87 µM | TGI [4]: 1.38 µM | TGI [6]: 29.2 µM | TGI [8]: 21.2 µM | TGI [9]: 3.95 µM

COc1cnc2c(c1)C(=O)c1c-2n(CCCN2CCCC2)c(=O)c2cc(Cl)ccc12
GI50 [1]: 1.47 µM | TGI [1]: 9.66 µM | GI50 [2]: 0.605 µM | TGI [2]: 10.2 µM | GI50 [3]: 0.792 µM | TGI [3]: 11.4 µM | GI50 [10]: 5.9 µM | TGI [10]: 15.3 µM | GI50 [4]: 0.27 µM | TGI [4]: 13.8 µM | GI50 [5]: 7.16 µM | TGI [5]: 22.6 µM | GI50 [6]: 2.54 µM | TGI [6]: 9.48 µM | GI50 [7]: 1.03 µM | TGI [7]: 11.7 µM | GI50 [8]: 0.347 µM | TGI [8]: 7.79 µM

N#CC1C(N)=NNC12Nc1ccccc1N2 (stereo not drawn)
GI50 [1]: 45 µM | TGI [1]: > 100 µM | GI50 [2]: 9.43 µM | TGI [2]: > 100 µM | GI50 [3]: 14 µM | TGI [3]: 78.6 µM | GI50 [5]: 15.1 µM | TGI [5]: 77.5 µM | GI50 [6]: 4.11 µM | TGI [6]: 21.2 µM | GI50 [7]: 17.8 µM | TGI [7]: 91 µM | GI50 [8]: 24.8 µM | TGI [8]: > 100 µM | GI50 [9]: 30.7 µM | TGI [9]: 73.3 µM

O=c1cccccc1NCCCCCCCCCNc1cccccc1=O
TGI [1]: 88.9 µM | TGI [2]: > 100 µM | TGI [3]: 26.9 µM | TGI [10]: 39.9 µM | TGI [4]: 52.9 µM | TGI [5]: 46.8 µM | TGI [7]: 88.5 µM | TGI [8]: 62.9 µM
